Test results taken from patent US7709002B1, “Mutated ras peptides for generation of CD8+Cytotoxic T lymphocytes” (The United States of America as represented by the …, priority 1996, dated 2010).
Where no end group is shown, it is not given here.

Key:
[1] = system: HLA-A2+ peptide-pulsed targets; assay: Generation and cytotoxicity of ras4-12(V12)-specific CD8+ CTL line from a normal HLA-A2+ donor; format: cell-based, human; settings: wild-type printed as wild-type ras peptide
human HLA-A2 = biological target: T1, human HLA-A2 (Homo sapiens, UniProt P04439, D140Y/D185E/D98H/E176V/E277Q/G131W/G231S/I119V/I121R/I166T/I218V/L300P/L318F/N151K/N90K/P208A/P217A/Q86G/Q94H/R138H/R169H/T345S); assay: HLA-A2 binding bioassay on T2 cells (flow cytometry); settings: T2 bioassay
T1 construct: The 174CEM.T2 cell line (“T2”), (transport deletion mutant); endogenous in cells; host or cells: 174CEM.T2 (T2) human cell line

BALB/c mouse = assay: Induction of MHC class I-restricted CD8+ CTL responses in the mouse; format: in vivo, mouse (BALB/c; H-2^d); settings: H-2^d
Excerpt: The basis of immunogenicity, in part, was attributed to the introduction of the mutated Val12 residue, which created a dominant C-terminus anchor for MHC class I binding. The resulting CD8^+ CTL response, thus, likely reflected T cell receptor recognition of a previously unseen peptide/MHC complex. In contrast to the ras5-14 sequence, ras4-12(V12) only partly shared the consensus motif for HLA-A2 binding, as the leucine anchor shifted from position 2 to 3. Importantly, the introduction of the mutated Val12 residue, as in the mouse, now created a dominant C-terminus anchor. […] (See FIG. 6).

[2] = system: T2 cell line as target of CD8+ CTL line of RAS patient 32; assay: 51Cr-release cytotoxicity of CD8+ CTL line of RAS patient 32 against peptide-pulsed T2 targets; format: cell-based, human; settings: peptide 10 μg/ml, IVS cycle 7 (FIG. 5)
Experimental: FIG. 5. Cytolytic activity by CD8^+ CTL line of RAS patient 32 is peptide-specific. The CD8^+ CTL line of RAS patient 32 (see FIG. 3) was assayed against the T2 cell line as a target, incubated with and without different ras peptides (10 μg/ml), as shown. In parallel, the extent of NK activity was evaluated against K562 cells. Cytotoxicity was determined by ^51Cr-release, and the results expressed at different E/T ratios following IVS cycle 7. Similar results were observed using the second, independently-derived CD8^+ CTL line as described in Table 6.
IVS cycles for evaluation of CD8^+ T cell responses from HLA-A2+Patients. Freshly-thawed PBMC (from ras patients 32 and 33), derived pre-vaccination and post-third vaccination, were enriched in T lymphocytes by passage over nylon wool columns (Robbins Scientific, Sunnyvale, Calif.) and then depleted of CD4^+ T cells by negative selection via panning on anti-CD4 MAb-coated T25 flasks (Applied Immune Sciences, Santa Clara, Calif.). For the first IVS cycle, CD8^+ enriched lymphocytes (5×10^5/well) were cultured in 24-well plates with irradiated, autologous PBMC (5×10^6/well) as APC which had been preincubated for 3 hours with the appropriate mutant ras peptide ([…]) plus human β2-microglobulin (10 μg/ml) (Calbiochem, San Diego, Calif.). […] IL-2 (10 U/ml) was added 3 days later. After an additional 7 days, viable cells (2-5×10^5/well) were re-cultured by weekly stimulation with APC pre-pulsed with peptide/β2-microglobulin, and IL-2 added one day later. After the third or fourth IVS cycle, autologous PBMC were replaced with EBV-transformed, autologous BLCL (5×10^5/well) as APC. […] CTL activity was evaluated from cultures 5 to 6 days after Ag restimulation.
Cytotoxic response. Cytotoxicity was examined by a conventional ^51Cr-release assay, as described (6). Briefly, target cells (i.e. T2, C1R-A2, BLCL, K562) were radiolabeled with 200 μCi of Na2[^51Cr]04 (Amersham) for 60 minutes at 37° C., followed by thorough washing to remove unincorporated isotope. Effectors and targets (1×10^4/well) were incubated in 96-well, U-bottomed plates (Costar) at various effector target (E/T) ratios in the absence and presence of peptide (+/−monoclonal antibody (MAb) directed against CD4, CD8 or HLA-A2 molecules (clone BB7.2 from ATCC)) for up to 6 hours. After incubation, supernatants were collected using a Supernatant Collection System (Skatron, Sterling, Va.) and radioactivity measured in a γ-counter (Packard Instruments, Downers Grove, Ill.). Cytotoxic activity was defined as percent specific release of ^51Cr and determined by the equation: [(experimentalcpm−spontaneouscpm)/maximumcpm−spontaneouscpm)]×100. Results were expressed as the mean±SEM of triplicate cultures. […]

[3] = system: post-vaccine PBMC of patient 32; assay: Lymphoproliferation of post-vaccine PBMC of patient 32; format: cell-based, human; settings: multiple IVS cycles
[4] = system: ras p21 codon 12 mutated carcinoma patients; assay: Phase I vaccination of metastatic carcinoma patients with mutant ras 13-mer peptide in Detox adjuvant; format: in vivo, human; settings: patient 32, 0.1 mg/vaccination x3 in Detox adjuvant, s.c.
Excerpt: Patient selection. Adult cancer patients with histologically confirmed diagnosis of adenocarcinoma of the colon, gastrointestinal tract, lung or pancreas with metastatic disease, were screened as potential candidates for this phase I clinical study. Tumor samples from these patients were examined for point mutations in the K-ras gene at codon 12 by polymerase chain reaction (PCR) of paraffin-embedded sections by methods known in the art. In addition to fulfilling all other essential inclusion criteria as specified in the FDA-approved NCI clinical protocol, those patients presenting the appropriate K-ras mutation were then selected for study entry.
Peptides and immunizations. Mutant ras 13-mer peptides used as immunogens were synthesized as clinical grade reagents under GMP conditions (Bachem, Torrance, Calif.: >97% purity by HPLC). Control and additional experimental peptides, which were used in vitro, either were prepared commercially (Bachem) or synthesized in the laboratory on an Applied Biosystems Model 432A personal peptide synthesizer (Foster City, Calif.) using Fmoc chemistry (>90% purity by HPLC). These reagent-grade products were dissolved in aqueous solution at 2 mg/ml, filter-sterilized and stored in aliquots at −70° C. The normal sequence of ras p21 reflecting positions 5-17 is […]([…]) (SEQ. ID NO. 1). […]

| Substance | Generation of peptide-specific CTL line / lysis of peptide-pulsed targets (in words) [1] | Binding to HLA-A2 on T2 cells (in words) (human HLA-A2) | Induction of CD8+ CTL responses in mouse (BALB/c mouse) | Sensitization of T2 targets for lysis (in words) [2] | CD4+ proliferative response against immunizing 13-mer peptide [3] | T cell response induced by vaccination [4] |
| --- | --- | --- | --- | --- | --- | --- |
| YKLVVVGAV [ras4-12(V12)] | A CD8^+ CTL line specific for ras4-12(V12) was then derived | specific, albeit weak, binding to HLA-A2 | resulted in the induction of MHC class I-restricted CD8^+ CTL responses |  |  |  |
| Lys-Leu-Val-Val-Val-Gly-Ala-Asp-Gly-Val-Gly-Lys-Ser [ras5-17(Asp12)] |  |  |  | did not appear to induce cytotoxicity | No specific CD4^+ proliferative response was observed | led to peptide-specific CD8^+ CTL activation |
